Source: patent US12698473B2, “Cell-containing structure” (Ricoh Company, Ltd., priority 2021, dated 2026)

Tests used:
[1] = system: cultured product composed of cell masses containing hiPSC-Neuron and astrocytes derived from a human fetus; assay: Evaluation of electrophysiological neurotoxicity of test compound: firing frequency response on MEA plate; assay type: cell-based; settings: spontaneous firing frequency before exposure 200 Hz or more per 16 electrodes; compared with 4 times or more at 4 to <100 Hz; FIG. 10
Protocol: A multi-electrode array (MEA) plate was prepared as a cell-containing container which is a cell-containing structure of the present embodiment.
As a plate used for the MEA plate, CytoView MEA Plate (commercially available from Axion Biosystems) having 6×8 wells (a total of 48 wells) and a micro electrode array on the well bottom was used. […]
In the main test, the action potential of neurons adhered onto a micro electrode 3 arranged on the well bottom as shown in FIG. 1 was measured as an extracellular potential, and the neurotoxicity was evaluated from the change in extracellular potential when the test compound was treated. […]
That is, using maestro Pro (commercially available from Axion Biosystems), for the prepared MEA Cytoview Plate (commercially available from Axion Biosystems), the results of the extracellular potential of the cultured product 2 composed of cell masses containing hiPSC-Neuron and astrocytes derived from a human fetus, which were adhered to the well bottom 1 shown in FIG. 1 and FIG. 2, measured using maestro Pro for 10 minutes are illustrated as a raster plot 6 of FIG. 3 and a graph 7 of the number of detected spikes. […] The spontaneous firing frequency (Hz) can be detected from the number of peaks in the graph […]. […]

[2] = system: cultured product composed of cell masses containing hiPSC-Neuron and astrocytes derived from a human fetus; assay: Pharmacological test with anti-epileptic drugs on MEA plate (extracellular potential, raster plot, number of spikes); assay type: cell-based; settings: Before vs After drug exposure; FIGS. 6-8
Protocol: From 22 days after cell seeding, once a week, extracellular potential data was acquired for 10 minutes using an extracellular measurement device maestro (Axion Biosystems).
That is, using maestro Pro (commercially available from Axion Biosystems), for the prepared MEA Cytoview Plate (commercially available from Axion Biosystems), the results of the extracellular potential of the cultured product 2 composed of cell masses containing hiPSC-Neuron and astrocytes derived from a human fetus, which were adhered to the well bottom 1 shown in FIG. 1 and FIG. 2, measured using maestro Pro for 10 minutes are illustrated as a raster plot 6 of FIG. 3 and a graph 7 of the number of detected spikes. […] The spontaneous firing frequency (Hz) can be detected from the number of peaks in the graph 7 per hour.
Using the plate produced in Experimental Example 1, a pharmacological test was performed using various drugs. The effect of the drug was confirmed by exposing an anti-epileptic drug having a function of inhibiting nerve firing to a sample. The evaluated drugs were Carbamazepine, Phenytoin, and Zonisamide, and the measurement was performed under the same conditions as the measurement of the extracellular potential data of Experimental Example 1.
A graph of a raster plot that visualizes the firing state and the number of detected. spikes for each drug is shown for Carbamazepine in FIG. 6, Phenytoin in FIG. 7, and Zonisamide in FIG. 8. Before in the drawings indicates before drug exposure, and After indicates after drug exposure. In all of the drugs, it was observed that the spontaneous firing frequency that could be detected from the number of spikes after drug exposure was reduced, and the mode in which that firing activity of the nerve was reduced after drug exposure was confirmed. That is, it was observed that the plate of this example could be used for detection in the pharmacological test using various drugs.

Row | Compound | response rate to the test compound (firing frequency after exposure) [1] | spontaneous firing frequency detected from the number of spikes after drug exposure [2]
1 | Nc1ccncc1 [4-AP] | about half that | –
2 | NC(=O)N1c2ccccc2C=Cc2ccccc21 [Carbamazepine] | – | reduced
3 | O=C1NC(=O)C(c2ccccc2)(c2ccccc2)N1 [Phenytoin] | – | reduced
4 | CC[C@@H]1C(=O)OC[C@@H]1Cc1cncn1C [Pilocarpine] | about half that | –
5 | NS(=O)(=O)Cc1noc2ccccc12 [Zonisamide] | – | reduced
